Results on 3 compounds are retold here after US20220226342A1, “COMPOSITIONS AND METHODS OF TREATING LIVER CANCERS” (The Johns Hopkins University, priority 2019, published 2022).

One experiment concerns 40 HCC PDO lines. Kind of experiment: 10 μM drug screening, cell viability at 96 h (CellTiter-Glo). In kind it is cell-based, human. Particulars: one HCC PDO line, 96 h. As for the experimental part: FIG. 2A-2E. 10 μM drug screening and IC50 calculation across 40 PDOs from 20 HCC patients. (2A). 10 μM drug screening of omacetaxine and sorafenib, regorafenib, lenvatinib and cabozantinib on 40 PDOs derived from 20 HCC patients. X axis—the 40 PDO lines, Y axis—Cell viability. (2B). IC50 curve of 40 PDO lines, x-axis—omacetaxine dose, Y axis—Relative cell viability. (2C). […] (2D). IC50 distribution of 40 HCC PDOs. X axis—PDO lines, Y axis—IC50 number of omacetaxine for each PDO.
As readout of drug effectiveness, cell viability at 96 hours (h) was measured. White light microscopy images of one of the HCC PDO lines across 129 drugs was prepared. In FIG. 2E, each panel represents the image collected at 96 hours after treatment with each drug, at a concentration of 10 μM. […] To quantify survival, we implemented CellTiter-Glo, a luminescent cell viability assay. A total of 129 readings (one for each drug) was obtained for each of the 40 PDO lines, for a total of […] data points. […] Next, the inventors contrasted the survival of the […] HCC PDO lines when treated with omacetaxine versus current FDA approved drugs for HCC.
For orientation: ATP-based viability assays read luminescence as a measure of living cells.

For experiment [1], the system named is HCC patients. The conditions noted are these: clinical trial; cited from earlier work.
In experiment [2] the test system is HCC patients. The conditions noted are these: cited from earlier work.

Each structure is given as a SMILES string.

Turning to `CC(C)C[C@H](NC(=O)[C@H](Cc1ccccc1)NC(=O)c1cnccn1)B(O)O` [bortezomib], the “white light microscopy image of organoids” value in the experiment on 40 HCC PDO lines is “induce cell destruction”.

On to `COc1cc2nccc(Oc3ccc(NC(=O)NC4CC4)c(Cl)c3)c2cc1C(N)=O` [lenvatinib], for which, in the experiment on HCC patients [1], the “efficacy compared to sorafenib” value is given as “non-inferior efficacy”. For `CNC(=O)c1cc(Oc2ccc(NC(=O)Nc3ccc(Cl)c(C(F)(F)F)c3)cc2)ccn1` [sorafenib], the “median increase in life span” value with HCC patients [2] (HCC patients) is 9.2 months. Also, the “median survival of HCC patients” value in the experiment with HCC patients [2] (SHARP trial, extended from 7.9) was 10.7 months. For the same compound, in the experiment with 40 HCC PDO lines, the “white light microscopy image of organoids” value is listed as “allow unrestricted organoid growth”.
